For this assay, the target named is T1, Full length Human HDAC6 (Homo sapiens, UniProt Q9UBN7).
T1 construct: Full length Human HDAC6; FLAG (C); host or cells: baculovirus expression system
T1 sequence (Q9UBN7 1-1215): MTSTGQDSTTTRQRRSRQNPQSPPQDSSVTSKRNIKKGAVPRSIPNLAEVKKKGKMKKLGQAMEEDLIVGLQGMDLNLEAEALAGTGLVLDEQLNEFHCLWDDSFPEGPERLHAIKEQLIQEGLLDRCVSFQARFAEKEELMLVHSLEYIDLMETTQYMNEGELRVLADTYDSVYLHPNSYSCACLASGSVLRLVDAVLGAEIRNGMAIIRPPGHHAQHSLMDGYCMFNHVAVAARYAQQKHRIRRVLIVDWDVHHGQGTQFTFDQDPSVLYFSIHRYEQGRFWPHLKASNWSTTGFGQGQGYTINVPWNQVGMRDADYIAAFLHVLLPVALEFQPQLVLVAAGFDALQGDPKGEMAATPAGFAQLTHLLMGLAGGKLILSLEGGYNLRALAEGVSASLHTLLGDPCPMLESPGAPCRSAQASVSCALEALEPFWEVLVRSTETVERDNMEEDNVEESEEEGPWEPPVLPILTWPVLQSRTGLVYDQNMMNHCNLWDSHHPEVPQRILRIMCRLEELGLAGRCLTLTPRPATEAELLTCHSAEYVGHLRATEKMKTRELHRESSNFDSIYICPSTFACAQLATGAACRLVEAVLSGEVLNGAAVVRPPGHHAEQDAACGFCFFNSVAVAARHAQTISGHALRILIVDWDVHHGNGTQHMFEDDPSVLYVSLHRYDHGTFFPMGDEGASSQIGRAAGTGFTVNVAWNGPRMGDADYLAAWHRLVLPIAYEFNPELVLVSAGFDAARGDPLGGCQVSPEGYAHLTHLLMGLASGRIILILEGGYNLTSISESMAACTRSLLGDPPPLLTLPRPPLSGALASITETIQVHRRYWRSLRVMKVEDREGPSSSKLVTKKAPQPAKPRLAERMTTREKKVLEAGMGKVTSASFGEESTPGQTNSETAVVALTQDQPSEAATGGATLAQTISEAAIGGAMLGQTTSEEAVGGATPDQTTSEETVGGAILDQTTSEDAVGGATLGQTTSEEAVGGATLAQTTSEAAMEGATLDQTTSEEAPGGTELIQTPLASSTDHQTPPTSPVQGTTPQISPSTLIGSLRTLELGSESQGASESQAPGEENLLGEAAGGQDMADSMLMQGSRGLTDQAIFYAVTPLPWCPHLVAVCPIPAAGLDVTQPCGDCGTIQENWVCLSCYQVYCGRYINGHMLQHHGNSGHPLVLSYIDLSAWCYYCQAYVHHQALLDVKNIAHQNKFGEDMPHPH
Put plainly: In vitro HDAC6 enzymatic activity (Caliper endpoint assay or Nanosyn fluorogenic format). To be noted: 30 min pre-incubation with enzyme. The assay is classed as biochemical.

One may read the IC50 as the point on the concentration scale where inhibition reaches its midpoint.

As to `FC(F)c1nnc(-c2ccc(COc3ccc4cccnc4c3)nc2)o1` [Compound 34, 2-(difluoromethyl)-5-[6-(7-quinolyloxymethyl)-3-pyridyl]-1,3,4-oxadiazole], the concentration for half-maximal inhibition (IC50) fell in the range of 1 to 100 nM.

Molecule `FC(F)c1nnc(-c2ccc(COc3cccc4ncccc34)nc2)o1` [Compound 63, 2-(difluoromethyl)-5-[6-(5-quinolyloxymethyl)-3-pyridyl]-1,3,4-oxadiazole] displayed a 50% inhibitory concentration (IC50) of 1 to 100 nM.

The values above are taken from patent US20250230166A1, “OXADIAZOLE HDAC6 INHIBITORS AND USES THEREOF” (Eikonizo Therapeutics, Inc., priority 2022, published 2025).
